Source: patent publication EP3698776A1, “TAMPER-RESISTANT DOSAGE FORM WITH IMMEDIATE RELEASE AND RESISTANCE AGAINST SOLVENT EXTRACTION” (Grünenthal GmbH, priority 2019, dated 2020)

Key:
[1] = system: non-dependent recreational opioid users; test: Human abuse liability study, intranasal: pharmacodynamics (VAS Drug Liking, pupillometry); assay type: in vivo; settings: 30 mg oxycodone HCl, Completer Set
Experimental: The formulation according to Inventive Example 1 was tested in a human abuse liability study and compared to a commercial product and to placebo (placebo API and placebo TRF formulation).
(§1) A single-site, randomized, double-blind, double-dummy, active-comparator, placebo-controlled, 3-way crossover trial in adult non-dependent recreational opioid users was conducted to compare the intranasal abuse potential of the tablet formulation according to Inventive Example 1 and standard formulations of oxycodone.
(§2) The primary objective of the study was to compare the intranasal abuse potential of a manipulated formulation according to Inventive Example 1 and oxycodone active pharmaceutical ingredient (API) powder (representing manipulated oxycodone IR standard formulation). Primary measure: Peak effect (Emax) for Drug Liking "at this moment" on visual analog scale (VAS). The secondary objectives were to compare the pharmacokinetics (PK), further pharmacodynamic (PD) parameters, and assess safety and tolerability.
The trial design is illustrated in Figure 3 (Single-site, randomized, double-blind, double-dummy, active-comparator, placebo-controlled, 3-way crossover trial in male and female non-dependent recreational opioid users with recent intranasal use experience).
Subjects received single treatments of Test, Comparator, and Placebo in a randomized, double-blind, double-dummy, 3-way crossover. […]

[2] = Human abuse liability study, intranasal: pharmacokinetics; assay type: in vivo; settings: inhaled or intranasal, intranasal (insufflated), plasma, PK Set, read-out: median tmax
Experimental: as §1, §2
Subjects received single treatments of Test, Comparator, and Placebo in a randomized, double-blind, double-dummy, 3-way crossover. Each single treatment consisted of two investigational medicinal products (IMPs), to be insufflated (snorted) in quick succession in fixed sequence:
Pharmacokinetics results are presented in Figure 7 relative to the insufflated amount of oxycodone, mean dose-normalized plasma-concentration-time profiles of Oxycodone - PK Set: […]

COc1ccc2c3c1O[C@H]1C(=O)CC[C@@]4(O)[C@@H](C2)N(C)CC[C@]314.Cl [Comparator (C), oxycodone HCl]
Peak effect (Emax) of Drug Liking "at this moment", Least Square Mean [1]: 75.0
Tmax [2]: 1.75 h
